In patent US20060074243A1, “Hydroxamic acid and amide compounds and their use as protease inhibitors” (Pharmacia Corporation, priority 2002, published 2006) one finds Ki data, which are given here for 25 compounds.

pKi: −log10 of the molar value.

Holding throughout (experiment): In vitro MMP inhibition analysis (fluorogenic peptide substrate cleavage), Ki
What all share (type): biochemical
Common to all, as to details: Table 2

For one assay, the target named is T1, Human recombinant MMP-2 (Homo sapiens, UniProt P08253).
T1 construct: made in house; host or cells: MMP-2-transfected p2AHT2 cells
T1 sequence (P08253 110-660): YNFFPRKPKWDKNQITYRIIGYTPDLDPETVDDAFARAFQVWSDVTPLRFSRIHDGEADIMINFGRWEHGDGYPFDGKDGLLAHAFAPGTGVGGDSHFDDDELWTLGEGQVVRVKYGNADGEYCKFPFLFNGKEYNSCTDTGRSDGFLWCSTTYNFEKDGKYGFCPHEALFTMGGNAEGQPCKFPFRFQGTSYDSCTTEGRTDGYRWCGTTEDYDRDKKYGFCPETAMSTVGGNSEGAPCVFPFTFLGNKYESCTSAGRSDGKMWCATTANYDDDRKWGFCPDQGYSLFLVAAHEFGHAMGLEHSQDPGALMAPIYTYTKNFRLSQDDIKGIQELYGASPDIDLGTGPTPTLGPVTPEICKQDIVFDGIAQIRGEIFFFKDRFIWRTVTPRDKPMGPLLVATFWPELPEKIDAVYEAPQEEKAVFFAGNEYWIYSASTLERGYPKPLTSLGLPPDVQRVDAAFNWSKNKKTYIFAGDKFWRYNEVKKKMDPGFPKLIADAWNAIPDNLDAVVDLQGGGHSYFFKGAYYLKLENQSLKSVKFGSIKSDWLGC
As to the method:
(§1) Several compounds and salts were analyzed in an in vitro assay to determine their ability to inhibit the MMP cleavage of peptide substrates. Inhibition constant (Ki) were calculated from the assayed compound-MMP interactions.
(§2) Human recombinant MMP-1, MMP-2, MMP-9, MMP-13, and MMP-14 were used in this assay. All enzymes were prepared in Assignee's laboratories following usual laboratory procedures. Protocols for the preparation and use of these enzymes are available in the scientific literature. See, e.g., Enzyme Nomenclature (Academic Press, San Diego, Calif., 1992) (and the citations therein). See also, Frije et al., J. Biol. Chem., 26(24), 16766-73 (1994).
The MMP-2 proenzyme was purified by gelatin Sepharose chromatography from MMP-2-transfected p2AHT2 cells provided by Dr. Gregory Goldberg of Washington University (St. Louis, Mo.).
(§3) All MMPs were activated using 4-aminophenylmercuric acetate (“APMA”, Sigma Chemical, St. Louis, Mo.) or trypsin. MMP-9 also was activated using human recombinant MMP-3 (purified in Assignee's laboratory following standard cloning and purification techniques).
(§4) The following fluorogenic, methoxycoumarin-containing polypeptide substrate (I) was used in the MMP inhibition assays: MCA-ArgProLeuGlyLeuDpaAlaArgGluArgNH2 (I) “MCA” is 7-methoxycoumarin-4-yl acetyl. Substrate (I) was prepared Assignee's laboratory. In the absence of MMP inhibitory activity, the substrate is cleaved at the Gly-Leu peptide bond. This cleavage separates the highly fluorogenic peptide from the 2,4-dinitrophenyl quencher, thus resulting in increase of fluorescent intensity.
(§5) The stock solutions of the assayed compounds and salts were prepared in […] (DMSO). These stock solutions were diluted in Buffer A (100 mM Tris-HCl, 100 mM NaCl, 10 mM CaCl2, 0.05% polyoxyethylene 23 lauryl ether, pH 7.5) to obtain solutions with different compound concentrations, i.e., assay solutions with different concentrations of the assayed […] compound. The experiment controls contained the same amount of Buffer A/DMSO as the assayed sample, but contained none of the tested compound or salt.
(§6) The assays from which the Ki determinations were made were performed as follows. The assayed compound samples were incubated in separate wells of untreated white polystyrene plates (Nunc Nalgene International, Rochester, N.Y.), and analyzed on a Tecan SpectraFlour Plus plate reader. The excitation wavelength was 330 nm, and the emission wavelength—420 nm. All samples (assayed compounds and controls) were incubated in separate plate wells at room temperature for 1 hr in the presence of 4 μM of MMP substrate (I). In the absence of MMP inhibitory activity, substrate (I) was cleaved at the Gly-Leu bond resulting in an increase of relative fluorescence. Inhibition was observed as a reduced rate of this increase in relative fluorescence. […] This protocol is a modification of method by Knight et al., FEBS Lett., 296(3), 263-266 (1992). Apparent inhibitory constants were determined by non-linear regression of reaction velocity as a function of inhibitor and enzyme concentration using Morrison's equation, as described by Kuzmic, Anal. Biochem. 286, 45-50 (2000). Modifications were made in the non-linear regression method to allow a common control reaction rate and effective enzyme concentration to be shared between all dose-response relationships on a given assay plate. Since the substrate concentration was chosen to be at or below the Km, the apparent Ki's from this analysis were reported as Ki's without correction for the influence of substrate.
(§7) The above protocols were used to determine Ki constants for the compounds in Examples 2-35 above. All Ki values in Table 1 are given in nM units.

A further assay concerns the target T2, Human recombinant MMP-9 (Homo sapiens, UniProt P14780).
T2 construct: made in house; host or cells: MMP-9-transfected HT1080 cells (spent media)
As to the method:
as §1, §2
The MMP-9 proenzyme was purified by gelatin Sepharose chromatography from spent media of MMP-9-transfected HT1080 cells provided by Dr. Howard Welgus of Washington University (St. Louis, Mo.).
as §3, §4, §5, §6, §7

The target of a further assay is T3, Human recombinant MMP-1 (Homo sapiens, UniProt P03956).
T3 construct: made in house; host or cells: MMP-1-transfected HT-1080 cells (spent media)
T3 sequence (P03956 100-469): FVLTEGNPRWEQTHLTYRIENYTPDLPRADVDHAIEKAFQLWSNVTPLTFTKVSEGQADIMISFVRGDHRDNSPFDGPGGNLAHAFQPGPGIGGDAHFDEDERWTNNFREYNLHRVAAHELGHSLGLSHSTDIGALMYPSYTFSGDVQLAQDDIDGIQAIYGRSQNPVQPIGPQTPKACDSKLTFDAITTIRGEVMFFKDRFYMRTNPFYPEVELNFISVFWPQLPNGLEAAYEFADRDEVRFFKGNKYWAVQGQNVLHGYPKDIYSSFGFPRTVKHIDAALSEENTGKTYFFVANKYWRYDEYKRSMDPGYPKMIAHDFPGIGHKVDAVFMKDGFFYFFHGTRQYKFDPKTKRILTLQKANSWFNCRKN
As to the method:
as §1, §2
The MMP-1 proenzyme was purified from the spent media of MMP-1-transfected HT-1080 cells provided by Dr. Harold Welgus of Washington University (St. Louis, Mo.). The protein was purified on a zinc chelating column.
as §3, §4, §5, §6, §7

T2 sequence (P14780 107-707 limits assumed): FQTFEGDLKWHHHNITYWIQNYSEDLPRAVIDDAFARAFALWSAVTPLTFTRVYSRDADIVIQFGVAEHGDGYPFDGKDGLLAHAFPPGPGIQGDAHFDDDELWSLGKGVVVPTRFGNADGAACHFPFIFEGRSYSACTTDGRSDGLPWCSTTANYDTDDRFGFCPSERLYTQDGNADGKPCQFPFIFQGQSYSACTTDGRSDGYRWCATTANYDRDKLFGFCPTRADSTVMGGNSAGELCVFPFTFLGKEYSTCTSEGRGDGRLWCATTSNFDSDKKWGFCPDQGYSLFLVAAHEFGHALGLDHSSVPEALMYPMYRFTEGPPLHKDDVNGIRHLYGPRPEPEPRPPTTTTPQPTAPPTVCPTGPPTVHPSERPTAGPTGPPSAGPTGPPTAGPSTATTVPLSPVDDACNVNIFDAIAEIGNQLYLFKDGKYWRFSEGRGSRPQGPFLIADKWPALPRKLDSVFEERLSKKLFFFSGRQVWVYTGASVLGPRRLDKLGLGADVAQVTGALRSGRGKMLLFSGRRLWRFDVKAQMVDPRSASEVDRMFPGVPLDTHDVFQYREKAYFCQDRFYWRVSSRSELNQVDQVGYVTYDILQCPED

As to `O=C(NO)C1(S(=O)(=O)c2ccc(-c3noc(-c4ccc(F)cc4)n3)cc2)CCOCC1` [Example 134], the negative logarithm of the Ki (pKi) (usually −log10 of the Ki, conventionally taken in molar units) on Human recombinant MMP-2 is 8.95; on Human recombinant MMP-9 it was 8.28; at Human recombinant MMP-1 it was 5.23.
In the same order, the values of `CCN1CCC(C(=O)NO)(S(=O)(=O)c2ccc(-c3ccc(Oc4ccccc4)cc3)cc2)CC1` [Example 135] are 8.37, 8.00 and less than 5.00.
For the compound `CCN1CCC(C(=O)NO)(S(=O)(=O)c2ccc(-c3ccc(-c4ccncc4)cc3)cc2)CC1` [Example 136], the negative-log Ki (pKi) on Human recombinant MMP-2 is 10.13; at Human recombinant MMP-9, 9.38; at Human recombinant MMP-1 it was 5.97.
Take `O=C(NO)C1(S(=O)(=O)c2ccc(-c3ncc(CCC(F)(F)C(F)(F)F)cn3)cc2)CCOCC1` [Example 137]: the negative-log Ki (pKi) was 8.57 on Human recombinant MMP-2, 8.94 on Human recombinant MMP-9 and less than 5.00 at Human recombinant MMP-1.
In the same order, the values of `O=C(NO)C1(S(=O)(=O)c2ccc(-c3cnc(N4CCCC4)cn3)cc2)CCOCC1` [Example 138] are 9.66, 8.98 and less than 5.00.
In the same order, the values of `CCCCc1ccc(-c2ccc(S(=O)(=O)C3(C(=O)NO)CCN(CC)CC3)cc2)cn1` [Example 139] are 8.05, 8.21 and less than 5.00.
The corresponding values for `CCCCc1ccc(-c2ccc(S(=O)(=O)C3(C(=O)NO)CCN(CC)CC3)cc2)nc1` [Example 140] are 9.75, 9.90 and less than 5.00.
In the case of `O=C(NO)C1(S(=O)(=O)c2ccc(-c3ccc(-c4ccncc4)cc3)cc2)CCOCC1` [Example 141], the pKi is 10.39 on Human recombinant MMP-2, 9.70 at Human recombinant MMP-9 and 6.59 on Human recombinant MMP-1.
On to `O=C(NO)C1(S(=O)(=O)c2ccc(-c3cnc(CCC(F)(F)C(F)(F)F)nc3)cc2)CCOCC1` [Example 142], for which the figures for the negative-log Ki (pKi) on Human recombinant MMP-2, at Human recombinant MMP-9 and at Human recombinant MMP-1 were 7.27, 7.12 and less than 5.00, respectively.
As to `O=C(NO)C1(S(=O)(=O)c2ccc(-c3ccc(OCCCC(F)(F)F)cn3)cc2)CCOCC1` [Example 144], the pKi on Human recombinant MMP-2 is 10.43; at Human recombinant MMP-9, 8.95; at Human recombinant MMP-1 it was 6.32.
In the same order, the values of `O=C(NO)C1(S(=O)(=O)c2ccc(-c3ccc(-c4ccc(OC(F)(F)F)cc4)cn3)cc2)CCN(C2CC2)CC1` [Example 145] are 9.14, 8.18 and 5.47.
The corresponding values for `CN1CCC(C(=O)NO)(S(=O)(=O)c2ccc(-c3ccc(OC(F)(F)C(F)F)cc3)cc2)CC1` [Example 146] are 9.52, 9.32 and 5.91.
In the same order, the values of `CCN1CCC(C(=O)NO)(S(=O)(=O)c2ccc(-c3noc(-c4ccc(F)cc4)n3)cc2)CC1` [Example 147] are 8.76, 8.15 and less than 5.00.
In the case of `CCN1CCC(C(=O)NO)(S(=O)(=O)c2ccc(-c3noc(-c4ccncc4)n3)cc2)CC1` [Example 148], the figures for the pKi on Human recombinant MMP-2, at Human recombinant MMP-9 and at Human recombinant MMP-1 were 8.14, 7.41 and less than 5.00, respectively.
In the same order, the values of `CCN1CCC(C(=O)NO)(S(=O)(=O)c2ccc(-c3noc(-c4ccc(C(F)(F)F)cc4)n3)cc2)CC1` [Example 149] are 9.12, 8.29 and less than 5.00.
In the same order, the values of `O=C(NO)C1(S(=O)(=O)c2ccc(-c3ccc(-c4ccccc4F)cn3)cc2)CCN(C2CC2)CC1` [Example 150] are 9.43, 9.33 and 5.82.
The corresponding values for `O=C(NO)C1(S(=O)(=O)c2ccc(-c3ccc(-c4ccccc4)cn3)cc2)CCN(C2CC2)CC1` [Example 151] are 9.82, 10.05 and 6.41.
On to `COCCN1CCC(C(=O)NO)(S(=O)(=O)c2ccc(-c3ccc(-c4ccccc4)cc3)cc2)CC1` [Example 152], for which the pKi at Human recombinant MMP-2 was 10.00; on Human recombinant MMP-9 it was 10.05; on Human recombinant MMP-1 it was 6.07.
Take `O=C(NO)C1(S(=O)(=O)c2ccc(-c3ccc(-c4ccccc4)cc3)cc2)CCN(C2CC2)CC1` [Example 153]: the pKi at Human recombinant MMP-2 was 9.59; at Human recombinant MMP-9, 9.74; at Human recombinant MMP-1 it was 5.88.
In the case of `O=C(NO)C1(S(=O)(=O)c2ccc(-c3cnc(OCC(F)(F)C(F)(F)F)cn3)cc2)CCOCC1` [Example 154], the figures for the pKi on Human recombinant MMP-2, on Human recombinant MMP-9 and at Human recombinant MMP-1 were 9.89, 9.47 and 5.74, respectively.
On to `CCN1CCC(C(=O)NO)(S(=O)(=O)c2ccc(-c3ccc(-c4csc(C)n4)cc3)cc2)CC1` [Example 155], for which the pKi at Human recombinant MMP-2 was 9.18; at Human recombinant MMP-9, 9.36; on Human recombinant MMP-1, 5.41.
On to `O=C(NO)C1(S(=O)(=O)c2ccc(-c3cnc(OCC(F)(F)C(F)(F)F)cn3)cc2)CCN(C2CC2)CC1` [Example 156], for which the negative logarithm of the Ki (pKi) was 9.41 on Human recombinant MMP-2, 9.32 on Human recombinant MMP-9 and 5.13 on Human recombinant MMP-1.
The corresponding values for `COCCN1CCC(C(=O)NO)(S(=O)(=O)c2ccc(-c3cnc(OCC(F)(F)C(F)(F)F)cn3)cc2)CC1` [Example 157] are 9.43, 9.38 and 5.02.
With `O=CN1CCC(C(=O)NO)(S(=O)(=O)c2ccc(-c3ccc(CCCC(F)(F)F)cn3)cc2)CC1` [Example 159], the negative logarithm of the Ki (pKi) at Human recombinant MMP-2 was 10.00; on Human recombinant MMP-9, 9.42; at Human recombinant MMP-1, 5.46.
The corresponding values for `O=C(NO)C1(S(=O)(=O)c2ccc(-c3cnc(-c4cccs4)cn3)cc2)CCOCC1` [Example 160] are 8.70, 8.50 and less than 5.00.
